Laboratory results taken from US11771709B2, “ALK protein degradation agent and anti-tumor application thereof” (ShanghaiTech University, priority 2017, dated 2023).

What was measured:
[1] = tested on: SR (NPM-ALK) cells; assay: Growth inhibition IC50 in ALCL SR cells (CCK8/WST, 72 hours); type: cell-based; details: SR cells, WST
Experimental: SR (NPM-ALK) and NCI-H2228 (EML4-ALK, V3) cells were purchased from ATCC. […] All Cells were cultured in RPMI1640 medium with 10% FBS and Penicillin-Streptomycin in 37° C. incubator with 5% CO2.
Cells were seeded at specific density in 96 well plates one day before treatment. […] Viable cells were measured via CCK8 reagent and IC50s were calculated via Prism Graphad. Experiments were repeated at least three times.

[2] = target: T1, ALK protein in H3122 (EML4-ALK) cells (Homo sapiens, UniProt Q9UM73); assay: Western blot of ALK protein level (degradation, DC50), ALK phosphorylation and downstream signaling in H3122 cells; type: cell-based; details: for DC50: ALK protein degradation in H3122 cells; for phosphorylation of AKT and ERK / ALK protein level / degradation: H3122 cells, western blot; for ALK protein level / degradation: up to 500 nM
T1 construct: EML4 (Echinoderm microtubule-associated protein-like 4, Q9HC35) fusion partner, variant 1; host or cells: NCI-H3122 lung adenocarcinoma cells; the other entry of the earlier key: EML4 (Q9HC35, Echinoderm microtubule-associated protein-like 4)

[3] = 72 h, Brigatinib-based PROTAD molecules (Table 3)
[4] = Alectinib based ALK PROTAD compounds (Table 4)

T1 sequence (Q9UM73 with tags, fused parts or gaps): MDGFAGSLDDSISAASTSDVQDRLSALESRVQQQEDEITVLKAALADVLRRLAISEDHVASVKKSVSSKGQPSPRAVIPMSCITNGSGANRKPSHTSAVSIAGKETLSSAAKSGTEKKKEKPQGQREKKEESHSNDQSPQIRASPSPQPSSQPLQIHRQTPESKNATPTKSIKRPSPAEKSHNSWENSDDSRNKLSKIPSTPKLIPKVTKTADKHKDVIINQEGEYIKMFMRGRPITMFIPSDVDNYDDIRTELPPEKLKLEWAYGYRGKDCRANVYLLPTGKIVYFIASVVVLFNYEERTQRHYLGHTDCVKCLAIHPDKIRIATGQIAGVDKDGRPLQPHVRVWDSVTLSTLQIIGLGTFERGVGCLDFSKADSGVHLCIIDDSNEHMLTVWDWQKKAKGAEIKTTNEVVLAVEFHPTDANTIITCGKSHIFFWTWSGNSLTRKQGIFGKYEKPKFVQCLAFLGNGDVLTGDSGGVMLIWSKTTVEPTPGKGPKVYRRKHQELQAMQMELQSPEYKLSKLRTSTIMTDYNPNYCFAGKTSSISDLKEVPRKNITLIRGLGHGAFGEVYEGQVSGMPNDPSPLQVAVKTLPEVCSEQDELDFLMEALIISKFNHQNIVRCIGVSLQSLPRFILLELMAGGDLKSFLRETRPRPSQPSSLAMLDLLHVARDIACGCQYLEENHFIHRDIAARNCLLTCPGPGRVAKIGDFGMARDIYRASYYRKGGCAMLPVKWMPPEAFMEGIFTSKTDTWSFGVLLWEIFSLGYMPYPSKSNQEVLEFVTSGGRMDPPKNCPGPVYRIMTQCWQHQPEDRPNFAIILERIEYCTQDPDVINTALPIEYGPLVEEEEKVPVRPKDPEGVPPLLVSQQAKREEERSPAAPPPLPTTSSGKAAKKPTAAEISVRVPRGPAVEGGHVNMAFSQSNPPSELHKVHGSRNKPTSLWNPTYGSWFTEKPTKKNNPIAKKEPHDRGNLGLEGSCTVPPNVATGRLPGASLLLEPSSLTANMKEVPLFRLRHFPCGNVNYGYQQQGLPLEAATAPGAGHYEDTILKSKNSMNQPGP

Compound | IC50 [1, 3] [nM] | DC50 [2] [nM] | IC50 [1, 4] [nM] | phosphorylation of AKT and ERK [2] | ALK protein level / degradation [2]
COc1cc(N2CCC(NC(=O)COCCOCC(=O)N[C@H](C(=O)N3C[C@H](O)C[C@H]3C(=O)NCc3ccc(-c4scnc4C)cc3)C(C)(C)C)CC2)ccc1Nc1ncc(Cl)c(Nc2ccccc2P(C)(C)=O)n1 [SIAIS151128, (2S,4R)-1-((S)-2-(2-(2-(2-((1-(4-((5-chloro-4-((2-(dimethylphosphoryl)phenyl)amino)pyrimidin-2-yl)amino)-3-methoxyphenyl)piperidin-4-yl)amino)-2-oxoethoxy)ethoxy)acetamido)-3,3-dimethylbutanoyl)-4-hydroxy-N-(4-(4-methylthiazol-5-yl)benzyl)pyrrolidine-2-carboxamide] | 6.3 ± 0.2 | 100 to 500 |  |  | 
COc1cc(N2CCC(NC(=O)CCOCCOCCOCCOCCOCCC(=O)N[C@H](C(=O)N3C[C@H](O)C[C@H]3C(=O)NCc3ccc(-c4scnc4C)cc3)C(C)(C)C)CC2)ccc1Nc1ncc(Cl)c(Nc2ccccc2P(C)(C)=O)n1 [SIAIS151127, N1-(1-(4-((5-chloro-4-((2-(dimethylphosphoryl)phenyl)amino)pyrimidin-2-yl)amino)-3-methoxyphenyl)piperidin-4-yl)-N19-((S)-1-((2S,4R)-4-hydroxy-2-((4-(4-methylthiazol-5-yl)benzyl)carbamoyl)pyrrolidin-1-yl)-3,3-dimethyl-1-oxobutan-2-yl)-4,7,10,13,16-pentaoxanonadecanediamide] | 36.4 ± 23.5 | 20 to 100 |  |  | 
COc1cc(N2CCC(NC(=O)CCOCCOCCC(=O)N[C@H](C(=O)N3C[C@H](O)C[C@H]3C(=O)NCc3ccc(-c4scnc4C)cc3)C(C)(C)C)CC2)ccc1Nc1ncc(Cl)c(Nc2ccccc2P(C)(C)=O)n1 [SIAIS151124, (2S,4R)-1-((S)-2-(3-(2-(3-((1-(4-((5-chloro-4-((2-(dimethylphosphoryl)phenyl)amino)pyrimidin-2-yl)amino)-3-methoxyphenyl)piperidin-4-yl)amino)-3-oxopropoxy)ethoxy)propanamido)-3,3-dimethylbutanoyl)-4-hydroxy-N-(4-(4-methylthiazol-5-yl)benzyl)pyrrolidine-2-carboxamide] | 76.9 ± 15.9 | 100 to 500 |  |  | 
COc1cc(N2CCC(NC(=O)CCOCCOCCOCCOCCNc3cccc4c3C(=O)N(C3CCC(=O)NC3=O)C4=O)CC2)ccc1Nc1ncc(Cl)c(Nc2ccccc2P(C)(C)=O)n1 (stereo not shown) [SIAIS151116, N-(1-(4-((5-chloro-4-((2-(dimethylphosphoryl)phenyl)amino)pyrimidin-2-yl)amino)-3-methoxyphenyl)piperidin-4-yl)-1-((2-(2,6-dioxopiperidin-3-yl)-1,3-dioxoisoindolin-4-yl)amino)-3,6,9,12-tetraoxapentadecan-15-amide] | 15.3 ± 9.8 | 100 to 500 |  |  | 
COc1cc(N2CCC(NC(=O)CCOCCOCCOCCOCCC(=O)N[C@H](C(=O)N3C[C@H](O)C[C@H]3C(=O)NCc3ccc(-c4scnc4C)cc3)C(C)(C)C)CC2)ccc1Nc1ncc(Cl)c(Nc2ccccc2P(C)(C)=O)n1 [SIAIS151126, N1-(1-(4-((5-chloro-4-((2-(dimethylphosphoryl)phenyl)amino)pyrimidin-2-yl)amino)-3-methoxyphenyl)piperidin-4-yl)-N16-((S)-1-((2S,4R)-4-hydroxy-2-((4-(4-methylthiazol-5-yl)benzyl)carbamoyl)pyrrolidin-1-yl)-3,3-dimethyl-1-oxobutan-2-yl)-4,7,10,13-tetraoxahexadecanediamide] | 31.9 ± 11.9 | 100 to 500 |  |  | 
CCc1cc2c(cc1N1CCN(C(=O)CCCNc3cccc4c3C(=O)N(C3CCC(=O)NC3=O)C4=O)CC1)C(C)(C)c1[nH]c3cc(C#N)ccc3c1C2=O (stereo not shown) [SIAIS164024, 8-(4-(4-((2-(2,6-dioxopiperidin-3-yl)-1,3-dioxoisoindolin-4-yl)amino)butanoyl)piperazin-1-yl)-9-ethyl-6,6-dimethyl-11-oxo-6,11-dihydro-5H-benzo[b]carbazole-3-carbonitrile] |  | 1 to 10 | 35.8 | inhibited | reduced the protein level of ALK protein
CCc1cc2c(cc1N1CCN(C(=O)CCCC(=O)N[C@H](C(=O)N3C[C@H](O)C[C@H]3C(=O)NCc3ccc(-c4scnc4C)cc3)C(C)(C)C)CC1)C(C)(C)c1[nH]c3cc(C#N)ccc3c1C2=O [SIAIS164094, (2S,4R)-1-((S)-2-(5-(4-(3-cyano-9-ethyl-6,6-dimethyl-11-oxo-6,11-dihydro-5H-benzo[b]carbazol-8-yl)piperazin-1-yl)-5-oxopentanamido)-3,3-dimethylbutanoyl)-4-hydroxy-N-(4-(4-methylthiazol-5-yl)benzyl)pyrrolidine-2-carboxamide] |  | 20 to 100 | 124 |  | 
CCc1cc2c(cc1N1CCN(C(=O)CCCc3cn(CCCC(=O)N[C@H](C(=O)N4C[C@H](O)C[C@H]4C(=O)NCc4ccc(-c5scnc5C)cc4)C(C)(C)C)nn3)CC1)C(C)(C)c1[nH]c3cc(C#N)ccc3c1C2=O [SIAIS164155, (2S,4R)-1-((S)-2-(4-(4-(4-(4-(3-cyano-9-ethyl-6,6-dimethyl-11-oxo-6,11-dihydro-5H-benzo[b]carbazol-8-yl)piperazin-1-yl)-4-oxobutyl)-1H-1,2,3-triazol-1-yl)butanamido)-3,3-dimethylbutanoyl)-4-hydroxy-N-(4-(4-methylthiazol-5-yl)benzyl)pyrrolidine-2-carboxamide] |  | 10 to 50 | 104 |  | 
CCc1cc2c(cc1N1CCN(C(=O)CCCCCNc3cccc4c3C(=O)N(C3CCC(=O)NC3=O)C4=O)CC1)C(C)(C)c1[nH]c3cc(C#N)ccc3c1C2=O (stereo not shown) [SIAIS164026, 8-(4-(6-((2-(2,6-dioxopiperidin-3-yl)-1,3-dioxoisoindolin-4-yl)amino)hexanoyl)piperazin-1-yl)-9-ethyl-6,6-dimethyl-11-oxo-6,11-dihydro-5H-benzo[b]carbazole-3-carbonitrile] |  | 1 to 10 | 148 | inhibited | reduced the protein level of ALK protein
COc1cc(N2CCN(C(=O)CCCCCC(=O)N[C@H](C(=O)N3C[C@H](O)C[C@H]3C(=O)NCc3ccc(-c4scnc4C)cc3)C(C)(C)C)CC2)ccc1Nc1ncc(Cl)c(Nc2ccccc2P(C)(C)=O)n1 [SIAIS1197151, (2S,4R)-1-((S)-2-(7-(4-(4-((5-chloro-4-((2-(dimethylphosphoryl)phenyl)amino)pyrimidin-2-yl)amino)-3-methoxyphenyl)piperazin-1-yl)-7-oxoheptanamido)-3,3-dimethylbutanoyl)-4-hydroxy-N-(4-(4-methylthiazol-5-yl)benzyl)pyrrolidine-2-carboxamide] | 16.7 ± 7.3 | 20 to 100 |  |  | 
COc1cc(N2CCN(C(=O)CCCCNc3cccc4c3C(=O)N(C3CCC(=O)NC3=O)C4=O)CC2)ccc1Nc1ncc(Cl)c(Nc2ccccc2P(C)(C)=O)n1 (stereo not shown) [SIAIS1197061, 4-((5-(4-(4-((5-chloro-4-((2-(dimethylphosphoryl)phenyl)amino)pyrimidin-2-yl)amino)-3-methoxyphenyl)piperazin-1-yl)-5-oxopentyl)amino)-2-(2,6-dioxopiperidin-3-yl)isoindoline-1,3-dione] | 8 ± 4.4 | 50 to 500 |  |  | 
COc1cc(N2CCC(NC(=O)CCOCCOCCOCCC(=O)N[C@H](C(=O)N3C[C@H](O)C[C@H]3C(=O)NCc3ccc(-c4scnc4C)cc3)C(C)(C)C)CC2)ccc1Nc1ncc(Cl)c(Nc2ccccc2P(C)(C)=O)n1 [SIAIS151125, (2S,4R)-1-((S)-2-(tert-butyl)-16-((1-(4-((5-chloro-4-((2-(dimethylphosphoryl)phenyl)amino)pyrimidin-2-yl)amino)-3-methoxyphenyl)piperidin-4-yl)amino)-4,16-dioxo-7,10,13-trioxa-3-azahexadecanoyl)-4-hydroxy-N-(4-(4-methylthiazol-5-yl)benzyl)pyrrolidine-2-carboxamide] | 61.9 ± 30.5 | 100 to 500 |  |  | 
CCc1cc2c(cc1N1CCN(C(=O)CCOCCOCCC(=O)N[C@H](C(=O)N3C[C@H](O)C[C@H]3C(=O)NCc3ccc(-c4scnc4C)cc3)C(C)(C)C)CC1)C(C)(C)c1[nH]c3cc(C#N)ccc3c1C2=O [SIAIS164036, (2S,4R)-1-((S)-2-(3-(2-(3-(4-(3-cyano-9-ethyl-6,6-dimethyl-11-oxo-6,11-dihydro-5H-benzo[b]carbazol-8-yl)piperazin-1-yl)-3-oxopropoxy)ethoxy)propanamido)-3,3-dimethylbutanoyl)-4-hydroxy-N-(4-(4-methylthiazol-5-yl)benzyl)pyrrolidine-2-carboxamide] |  | 20 to 100 | 132 |  | 
COc1cc(N2CCN(C(=O)CCC(=O)N[C@H](C(=O)N3C[C@H](O)C[C@H]3C(=O)NCc3ccc(-c4scnc4C)cc3)C(C)(C)C)CC2)ccc1Nc1ncc(Cl)c(Nc2ccccc2P(C)(C)=O)n1 [SIAIS1197145, (2S,4R)-1-((S)-2-(4-(4-(4-((5-chloro-4-((2-(dimethylphosphoryl)phenyl)amino)pyrimidin-2-yl)amino)-3-methoxyphenyl)piperazin-1-yl)-4-oxobutanamido)-3,3-dimethylbutanoyl)-4-hydroxy-N-(4-(4-methylthiazol-5-yl)benzyl)pyrrolidine-2-carboxamide] | 8.5 ± 5.6 | 1 to 50 |  |  | 
COc1cc(N2CCN(C(=O)CCOCCOCCNc3cccc4c3C(=O)N(C3CCC(=O)NC3=O)C4=O)CC2)ccc1Nc1ncc(Cl)c(Nc2ccccc2P(C)(C)=O)n1 (stereo not shown) [SIAIS1197067, 4-((2-(2-(3-(4-(4-((5-chloro-4-((2-(dimethylphosphoryl)phenyl)amino)pyrimidin-2-yl)amino)-3-methoxyphenyl)piperazin-1-yl)-3-oxopropoxy)ethoxy)ethyl)amino)-2-(2,6-dioxopiperidin-3-yl)isoindoline-1,3-dione] | 16.1 ± 6.1 | 100 to 500 |  |  | 
